Data set [1] has as its target T1, CHK1 (Homo sapiens (Human), UniProt O14757). Put plainly: CHK1 inhibitory activity test (IMAP TR-FRET). The data set is classed as biochemical.
The nature of data set [2]: Liposome encapsulation test of Example 1 (Test Example 6A). The data set is classed as physicochemical. How it is done:
11.08 g of Presome ACD-1 (pre-prepared mixture consisting of hydrogenated soybean phosphatidylcholine, cholesterol, and distearoylphosphatidylethanolamine-methoxypolyethylene glycol 2000 at a mass ratio of 3:1:1, Nippon Fine Chemical Co., Ltd.) was weighed out, and 200 mL of 250 mM ammonium sulfate solution was added. The resulting mixture was heated to 65° C. and dispersed with a homogenizer (ULTRA-TURRAX, IKA) to obtain a crude liposome dispersion. […] The mixture was filtered through a 0.22 μm membrane filter to obtain an empty liposome solution with a total lipid concentration of 75 mM (75 μmol/mL).
The compound of Example 1 was weighed out. About 0.4 mL of 10 mM L-histidine buffer/10% sucrose solution (pH 6.5), about 0.1 mL of 0.1 mol/L hydrochloric acid, and 1 mL of the empty liposome solution were added, and the pH was adjusted to 6 to 6.5 by adding 1 mol/L hydrochloric acid. The mixture was heated for 30 minutes in a 65° C. water bath and then cooled with ice. The mixture was then filtered through a 0.22 μm membrane filter.
The liposome encapsulation ratio was calculated as follows. Unencapsulated compound concentration: The compound concentration was measured by HPLC for a solution prepared by adding 100 μL of aqueous 4% phosphoric acid solution to 100 μL of liposome solution. HPLC measurement conditions are the following.
Compound concentration in liposome solution: The liposome solution was diluted with a trifluoroacetic acid/water/methanol mixture (0.1/25/75) and was left standing for 10 minutes or longer at 5° C. The mixture was centrifuged for 5 minutes at 15,000×g to remove insolubles. The compound concentration in the supernatant was measured by HPLC. HPLC measurement conditions are the following. HPLC Conditions Column: Acquity UPLC BEH C18, 1.7 μm, 50×2.1 mm Column temperature: 40° C. Mobile phase: A: 0.1% trifluoroacetic acid containing water B: acetonitrile A/B (min): 95/5 (0)→0/100 (3.5)→0/100 (4)→95/5 (4.01)→95/5 (5) Flow rate: 0.8 mL/min Detection: UV visible detector, measured wavelength 254 nm injected volume: 5 μL
The encapsulation ratio and encapsulation efficiency were calculated by the following equations. Encapsulation ratio (%)=(compound concentration in liposome solution−unencapsulated compound concentration)×100/compound concentration in liposome solution Encapsulation efficiency (%)=(compound concentration in liposome solution−unencapsulated compound concentration)[…]

Data set [3] concerns the target T1, CHK1. In words: CHK1/CHK2 selectivity test (LabChip mobility shift). The data set is classed as biochemical. Particulars: read-out: IC50 value with respect to CHK1.
In another data set the target is CHK2 (Homo sapiens (Human), UniProt O96017). The description is as above. The data set is classed as biochemical. The note with it: read-out: IC50 value with respect to CHK2.
The target in data set [4] is T2, hERG current (Homo sapiens (Human), UniProt Q12809). In words: cell-based.
Experimental: (§4) The test compounds were added to cultured hERG (human Ether-a-go-go Related Gene) gene stably expressing CHO cell line cells to achieve 0.27 to 100 μM.
Data set [5] addresses T2, hERG current. Put plainly: hERG current blocking test. Particulars: IC50 of hERG divided by IC50 of CHK1 inhibition of Test Example 1.
Experimental: as §4
The target in the next data set is CDK19/CYCLIN C (Homo sapiens (Human), UniProt Q9BWU1). In words: Kinase selectivity test (HotSpot Full Panel Kinase profiling). The note with it: 100 nM, ATP 10 μM; read-out: Residual activity (%) CDK19/CYCLIN C. The data set is classed as biochemical. How it is done:
(§1) Buffer: 20 mM HEPES, pH 7.5, 10 mM MgCl2, 2 mM […] (as needed), 1 mM EGTA, 0.02% Brij35, 0.02 mg/mL BSA, 0.1 mM Na3VO4, 2 mM DTT, 1% DMSO
(§2) ATP conversion rate in 2 hours: 5 to 20%
(§3) Compound concentration: 100 nM

A further data set addresses GLK/MAP4K3 (Homo sapiens (Human), UniProt Q8IVH8). Described as above. The data set is classed as biochemical. Particulars: 100 nM, ATP 10 μM; read-out: Residual activity (%) GLK/MAP4K3. How it is done: as §1, §2, §3
In the next data set the target is LRRK2 (Homo sapiens (Human), UniProt Q5S007). The data set is described as above. The data set is classed as biochemical. The note with it: 100 nM, ATP 10 μM; read-out: Residual activity (%) LRRK2. The procedure:
as §1, §2, §3

The next data set has as its target MEK5 (Homo sapiens (Human), UniProt Q13163). Described as above. The data set is classed as biochemical. Particulars: 100 nM, ATP 10 μM; read-out: Residual activity (%) MEK5. How it is done: as §1, §2, §3
The target of another data set is SIK1 (Homo sapiens (Human), UniProt P57059). The description is as above. The data set is classed as biochemical. Particulars: 100 nM, ATP 10 μM; read-out: Residual activity (%) SIK1. How it is done:
as §1, §2, §3

These results are taken from patent US11564920B2, “5-heteroaryl-1H-pyrazol-3-amine derivative” (Sumitomo Pharma Co., Ltd., priority 2020, dated 2023).

pIC50: −log10 of the molar value. “Also recorded” adds a separate entry of the source.

T1 sequence (O14757 whole entry): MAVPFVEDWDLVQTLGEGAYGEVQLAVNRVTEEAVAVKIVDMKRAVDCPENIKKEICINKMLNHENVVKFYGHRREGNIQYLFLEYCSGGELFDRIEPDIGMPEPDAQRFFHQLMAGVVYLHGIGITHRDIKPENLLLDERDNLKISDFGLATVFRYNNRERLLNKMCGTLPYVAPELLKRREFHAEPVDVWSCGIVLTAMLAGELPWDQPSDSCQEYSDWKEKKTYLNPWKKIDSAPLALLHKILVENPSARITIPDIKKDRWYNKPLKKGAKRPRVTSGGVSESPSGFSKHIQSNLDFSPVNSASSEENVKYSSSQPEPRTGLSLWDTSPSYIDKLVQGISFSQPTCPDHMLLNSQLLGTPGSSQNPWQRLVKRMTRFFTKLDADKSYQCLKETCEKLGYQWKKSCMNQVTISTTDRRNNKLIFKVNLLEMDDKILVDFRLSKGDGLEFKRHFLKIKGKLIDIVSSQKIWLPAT
T2 sequence (Q12809 whole entry): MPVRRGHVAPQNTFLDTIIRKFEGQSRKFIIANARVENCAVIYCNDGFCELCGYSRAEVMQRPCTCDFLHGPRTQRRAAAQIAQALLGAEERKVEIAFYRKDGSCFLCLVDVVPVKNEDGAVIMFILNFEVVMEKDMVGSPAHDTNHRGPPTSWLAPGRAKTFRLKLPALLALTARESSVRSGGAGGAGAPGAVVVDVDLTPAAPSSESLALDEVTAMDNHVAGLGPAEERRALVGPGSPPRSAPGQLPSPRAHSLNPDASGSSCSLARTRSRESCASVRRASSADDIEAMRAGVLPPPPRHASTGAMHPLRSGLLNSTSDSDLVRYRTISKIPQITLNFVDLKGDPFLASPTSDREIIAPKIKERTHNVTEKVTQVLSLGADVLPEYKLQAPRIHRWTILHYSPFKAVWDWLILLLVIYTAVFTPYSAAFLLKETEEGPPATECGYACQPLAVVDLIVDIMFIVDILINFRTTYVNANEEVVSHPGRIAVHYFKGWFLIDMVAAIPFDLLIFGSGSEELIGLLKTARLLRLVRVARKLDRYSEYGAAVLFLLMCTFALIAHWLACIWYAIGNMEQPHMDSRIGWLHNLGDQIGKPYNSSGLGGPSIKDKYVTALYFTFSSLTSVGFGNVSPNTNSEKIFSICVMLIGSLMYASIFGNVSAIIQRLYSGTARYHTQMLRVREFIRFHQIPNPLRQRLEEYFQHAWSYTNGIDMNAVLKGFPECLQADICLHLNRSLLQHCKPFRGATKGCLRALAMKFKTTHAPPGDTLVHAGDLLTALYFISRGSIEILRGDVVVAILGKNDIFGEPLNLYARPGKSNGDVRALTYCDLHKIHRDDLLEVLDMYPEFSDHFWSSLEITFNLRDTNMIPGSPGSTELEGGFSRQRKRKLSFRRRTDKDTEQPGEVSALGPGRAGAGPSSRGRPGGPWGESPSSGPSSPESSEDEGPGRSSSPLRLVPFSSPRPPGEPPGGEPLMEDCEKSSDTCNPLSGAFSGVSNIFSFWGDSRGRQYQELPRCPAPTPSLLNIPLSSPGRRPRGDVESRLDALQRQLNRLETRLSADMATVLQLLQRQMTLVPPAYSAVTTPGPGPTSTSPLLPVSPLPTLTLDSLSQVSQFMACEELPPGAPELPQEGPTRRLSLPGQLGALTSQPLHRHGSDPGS
Chain of CHK2 (O96017 whole entry): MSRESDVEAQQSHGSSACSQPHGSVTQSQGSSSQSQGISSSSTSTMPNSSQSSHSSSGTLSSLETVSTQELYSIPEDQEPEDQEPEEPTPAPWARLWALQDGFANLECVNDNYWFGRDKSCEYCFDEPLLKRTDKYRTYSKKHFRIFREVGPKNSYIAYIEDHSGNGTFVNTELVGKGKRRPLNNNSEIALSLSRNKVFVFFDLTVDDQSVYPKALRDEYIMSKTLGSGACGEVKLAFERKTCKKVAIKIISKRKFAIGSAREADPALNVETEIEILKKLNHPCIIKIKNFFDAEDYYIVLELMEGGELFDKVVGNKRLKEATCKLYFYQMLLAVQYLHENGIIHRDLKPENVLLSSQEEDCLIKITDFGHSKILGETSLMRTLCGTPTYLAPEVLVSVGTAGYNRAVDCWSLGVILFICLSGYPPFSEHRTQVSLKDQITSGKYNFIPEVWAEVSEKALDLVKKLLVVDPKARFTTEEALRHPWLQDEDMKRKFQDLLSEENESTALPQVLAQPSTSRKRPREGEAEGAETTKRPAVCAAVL
Chain of CDK19/CYCLIN C (Q9BWU1 whole entry): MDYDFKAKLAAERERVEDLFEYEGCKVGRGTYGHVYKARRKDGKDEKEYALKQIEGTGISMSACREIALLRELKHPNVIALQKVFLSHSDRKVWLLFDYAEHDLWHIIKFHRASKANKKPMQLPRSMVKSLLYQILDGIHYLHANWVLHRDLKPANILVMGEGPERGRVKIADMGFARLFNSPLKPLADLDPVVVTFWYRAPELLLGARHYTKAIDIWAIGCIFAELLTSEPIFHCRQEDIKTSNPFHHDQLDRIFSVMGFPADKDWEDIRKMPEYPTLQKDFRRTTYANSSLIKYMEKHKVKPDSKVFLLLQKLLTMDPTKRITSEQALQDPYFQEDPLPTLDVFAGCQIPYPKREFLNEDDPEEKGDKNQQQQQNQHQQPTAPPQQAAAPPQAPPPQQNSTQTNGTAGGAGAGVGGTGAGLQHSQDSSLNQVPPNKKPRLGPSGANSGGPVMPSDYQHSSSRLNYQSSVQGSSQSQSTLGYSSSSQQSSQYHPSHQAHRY
Chain of CDK19/CYCLIN C (P24863 whole entry partner): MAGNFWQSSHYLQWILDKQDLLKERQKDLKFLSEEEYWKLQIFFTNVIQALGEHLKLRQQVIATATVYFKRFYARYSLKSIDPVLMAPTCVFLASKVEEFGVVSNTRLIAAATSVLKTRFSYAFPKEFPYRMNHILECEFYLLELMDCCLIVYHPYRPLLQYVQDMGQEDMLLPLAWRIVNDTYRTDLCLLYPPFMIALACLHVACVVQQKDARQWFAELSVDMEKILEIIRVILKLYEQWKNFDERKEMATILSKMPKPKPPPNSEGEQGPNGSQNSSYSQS
Chain of MEK5 (Q13163 whole entry): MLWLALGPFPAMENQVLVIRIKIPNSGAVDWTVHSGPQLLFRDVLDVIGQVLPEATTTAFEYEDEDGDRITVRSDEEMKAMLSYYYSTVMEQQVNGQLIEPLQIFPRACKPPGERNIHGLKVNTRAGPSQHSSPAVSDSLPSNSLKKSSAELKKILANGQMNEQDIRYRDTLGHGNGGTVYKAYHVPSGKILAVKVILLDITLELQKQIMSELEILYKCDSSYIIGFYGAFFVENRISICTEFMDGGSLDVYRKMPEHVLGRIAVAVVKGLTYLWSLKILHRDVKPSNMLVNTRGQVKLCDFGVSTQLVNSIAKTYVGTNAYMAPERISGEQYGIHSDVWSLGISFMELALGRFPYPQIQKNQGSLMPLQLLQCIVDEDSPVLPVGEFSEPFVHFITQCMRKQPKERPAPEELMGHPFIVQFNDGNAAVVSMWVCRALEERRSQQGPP
Chain of SIK1 (P57059 whole entry): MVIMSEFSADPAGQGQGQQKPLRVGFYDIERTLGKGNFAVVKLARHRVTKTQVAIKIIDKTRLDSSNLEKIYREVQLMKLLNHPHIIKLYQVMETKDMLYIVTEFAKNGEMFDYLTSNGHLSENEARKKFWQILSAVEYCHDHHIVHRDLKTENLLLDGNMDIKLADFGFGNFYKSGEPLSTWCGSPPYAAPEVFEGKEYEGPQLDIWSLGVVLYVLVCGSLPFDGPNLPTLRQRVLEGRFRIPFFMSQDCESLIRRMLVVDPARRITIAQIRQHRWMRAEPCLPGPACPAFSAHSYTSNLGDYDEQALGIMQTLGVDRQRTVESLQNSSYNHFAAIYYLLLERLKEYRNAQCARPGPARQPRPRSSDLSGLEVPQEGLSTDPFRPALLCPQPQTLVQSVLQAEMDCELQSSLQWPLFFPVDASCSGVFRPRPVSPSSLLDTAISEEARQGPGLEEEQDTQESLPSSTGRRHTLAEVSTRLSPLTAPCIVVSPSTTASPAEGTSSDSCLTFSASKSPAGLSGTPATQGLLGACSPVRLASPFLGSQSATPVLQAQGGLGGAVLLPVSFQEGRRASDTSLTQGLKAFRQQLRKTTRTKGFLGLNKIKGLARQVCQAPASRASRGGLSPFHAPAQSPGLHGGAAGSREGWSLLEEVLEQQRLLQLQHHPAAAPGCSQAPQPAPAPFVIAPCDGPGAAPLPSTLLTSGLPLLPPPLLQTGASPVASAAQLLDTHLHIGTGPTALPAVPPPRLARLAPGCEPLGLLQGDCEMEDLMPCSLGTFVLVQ

With `COc1ccnc(OCCCN)c1-c1cc(Nc2cnc(C#N)cn2)n[nH]1` [Example 1, 5-({5-[2-(3-aminopropoxy)-4-methoxypyridin-3-yl]-1H-pyrazol-3-yl}amino)pyrazine-2-carbonitrile], the “CHK1 inhibitory activity relative to prexasertib” value on CHK1 [1] is no less than 5 fold. Besides, the pIC50 against CHK1 [1] was greater than 10.00; on CHK1 [3], greater than 9.52; on CHK2, 7.25; on hERG current [4], 4.94. In addition, the “effect of suppressing CHK1 activity (in words)” value at CHK1 [1] (compared with prexasertib) is given as “more potent effect of suppressing CHK1 activity than prexasertib; also recorded: especially potently suppressing CHK1 activity”. In addition, the inhibition at 0.0001 µM on CHK1 [1] (read-out: CHK1 inhibition % at 0.1 nM) is 55%. The “liposome encapsulation efficiency” value in data set [2] is no less than 90%. Also, the Encapsulation efficiency in data set [2] (concentration upon compound introduction 2 mg/mL) is 91.3%; in data set [2] (concentration upon compound introduction 3 mg/mL) it was 91.6%; in data set [2] (concentration upon compound introduction 4 mg/mL), 92.2%. The hERG/CHK1 on hERG current [5] is reported as greater than 115000.
As for `COc1cccc(OCCCN)c1-c1cc(Nc2cnc(C#N)cn2)n[nH]1` [Prexasertib, reference compound], the remaining activity at 0.1 µM at CDK19/CYCLIN C is 19.9%; at GLK/MAP4K3, 20.8%; on LRRK2, 23.5%; at MEK5, 10.7%; at SIK1 it was 11.9%.

Usually pIC50 stands for the IC50 on a negative log10 scale, so that one unit is a factor of ten. The term inhibition denotes how much of the control response was suppressed.
